For the experiment, the target named is T1, Purified bovine SOD1 (Bos taurus, UniProt P00442).
T1 construct: commercial purified enzyme (Sigma)
In words: WST-1 reduction by xanthine oxidase-generated superoxide. Format: biochemical. (Formazan colour is commonly taken as a measure of viable cells.)

T1 sequence (P00442 2-152): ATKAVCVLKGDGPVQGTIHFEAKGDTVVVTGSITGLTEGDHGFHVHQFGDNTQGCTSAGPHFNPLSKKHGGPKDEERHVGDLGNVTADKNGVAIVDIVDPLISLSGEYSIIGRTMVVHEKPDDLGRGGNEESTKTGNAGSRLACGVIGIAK

As for `[S]=[Mo](=[S])([SH])[SH]` [ATN-224], the IC50 (as a rule, the concentration that gives 50% inhibition) was 2030 nM. In other words, the single-digit micromolar range.

The values above are taken from paper PMC2259182, “Identification of biomarkers for the antiangiogenic and antitumour activity of the superoxide dismutase 1 (SOD1) inhibitor tetrathiomolybdate (ATN-224)” (British Journal of Cancer, 2008).
